A short description of this series: Adverse events in treated dogs following administration. In kind it is in vivo. Conditions: chewable tablet (Bravecto), close to 25 mg/kg body weight oral. The protocol: Twenty healthy male and female mixed-breed dogs ≧12 weeks old were housed in individual pens. Ten dogs per group were randomly assigned to receive either a fluralaner chewable tablet (Bravecto™) or no treatment. Each pen contained the bottom half of a dog carrier lined with carpet as bedding. Before treatment, each dog was infested twice (28 and 21 days pretreatment) with 100 adult, unfed C. felis to establish a flea population prior to treatment on each dog. Flea media was added to the carpet 4 weeks before the treatment date and weekly thereafter for the remainder of the study to encourage development of an active, developing population of juvenile flea stages in each pen. On the treatment day, dogs in the treated group received fluralaner at a dose close to 25 mg/kg body weight by oral administration. The chewable tablet(s) were administered by placement in the back of the oral cavity over the tongue to initiate swallowing. Dogs in the negative control group remained untreated.

On to `Cc1cc(C2=NOC(c3cc(Cl)cc(Cl)c3)(C(F)(F)F)C2)ccc1C(=O)NCC(=O)NCC(F)(F)F` (stereo not shown) [fluralaner, 4-[5-(3,5-Dichlorophenyl)-5-trifluoromethyl-4,5-dihydroisoxazol-3-yl]-2-methyl-N-[(2,2,2-trifluoro-ethylcarbamoyl)-methyl]-benzamide], for which the Adverse events result is reported as “No adverse events were observed”.

(Values after patent US9655884B2, “Antiparasitic use of isoxazoline compounds” (Intervet Inc., priority 2013, dated 2017).)
